target: Prothrombin (Homo sapiens) (UniProt P00734); assay: Apparent association constant towards thrombin.

First: Oc1ccc2c(Cc3ccc(O[C@@H]4CCCC[C@H]4N4CCCC4)c(C(F)(F)F)c3)c(-c3ccc(OCCN4CCCC4)cc3)sc2c1
Second: Oc1ccc2c(Cc3ccc(O[C@@H]4CCCC[C@H]4N4CCCC4)c(F)c3)c(-c3ccc(OCCN4CCCC4)cc3)sc2c1
The K ass of the first is lower: 6.84e+07 l M-1 for the first, 1.21e+08 l M-1 for the second.

Compared with COc1cc(Cc2c(-c3ccc(OCCN4CCCC4)cc3)sc3cc(O)ccc23)ccc1O[C@@H]1CCCC[C@H]1N1CCCC1, COc1cc(Cc2c(-c3ccc(OCCN4CCCC4)cc3)sc3cc(O)ccc23)ccc1O[C@@H]1CCCC[C@H]1N1CCCCC1 is lower in K ass: 3.09e+08 l M-1 for the first, 1.16e+08 l M-1 for the second.

Going from Oc1ccc2c(Cc3ccc(O[C@@H]4CCC[C@H]4N4CCCCC4)cc3)c(-c3ccc(OCCN4CCCC4)cc3)sc2c1 to Oc1ccc2c(Cc3ccc(O[C@@H]4CCCC[C@H]4N4CCCC4)cc3)c(-c3ccc(OCCN4CCCC4)cc3)sc2c1, the K ass rises from 4.73e+07 l M-1 to 2.18e+08 l M-1.

First: Oc1ccc2c(Cc3ccc(O[C@@H]4CCCC[C@H]4N4CCOCC4)cc3)c(-c3ccc(OCCN4CCCC4)cc3)sc2c1
Second: Oc1ccc2c(Cc3ccc(O[C@@H]4CCCC[C@H]4N4CCCCC4)cc3)c(-c3ccc(OCCN4CCCC4)cc3)sc2c1
The K ass of the first is lower: 1.81e+07 l M-1 for the first, 2.12e+08 l M-1 for the second.

First: Oc1ccc2c(Cc3ccc(O[C@@H]4CCCC[C@H]4N4CCCCCC4)cc3)c(-c3ccc(OCCN4CCCC4)cc3)sc2c1
Second: Oc1ccc2sc(-c3ccc(OCCN4CCCC4)cc3)c(Cc3ccc(OC4CCCC[C@H]4N4CCCCC4)cc3)c2c1 (stereo partly drawn)
The K ass of the first is higher: 7.48e+07 l M-1 for the first, 1.39e+07 l M-1 for the second.

Going from COc1cccc2c(Cc3ccc(O[C@@H]4CCCC[C@H]4N4CCCCC4)cc3)c(-c3ccc(OCCN4CCCC4)cc3)sc12 to Oc1cccc2c(Cc3ccc(O[C@@H]4CCCC[C@H]4N4CCCCC4)cc3)c(-c3ccc(OCCN4CCCC4)cc3)sc12, the K ass rises from 118000 l M-1 to 1.08e+06 l M-1.

Compared with COc1ccc2sc(-c3ccc(OCCN4CCCC4)cc3)c(Cc3ccc(O[C@@H]4CCCC[C@H]4N4CCCCC4)cc3)c2c1, COc1ccc2c(Cc3ccc(O[C@@H]4CCCC[C@H]4N4CCCCC4)cc3)c(-c3ccc(OCCN4CCCC4)cc3)sc2c1 is lower in K ass: 3.65e+07 l M-1 for the first, 3.83e+06 l M-1 for the second.

Compared with Oc1ccc2c(Cc3ccc(O[C@@H]4CCCC[C@H]4N4CCCCC4)nc3)c(-c3ccc(OCCN4CCCC4)cc3)sc2c1, Oc1ccc2c(Cc3ccc(O[C@@H]4CCCC[C@H]4N4CCCCC4)c(F)c3)c(-c3ccc(OCCN4CCCC4)cc3)sc2c1 is higher in K ass: 9.61e+07 l M-1 for the first, 2.03e+08 l M-1 for the second.

First: Cc1cc(Cc2c(-c3ccc(OCCN4CCCC4)cc3)sc3cc(O)ccc23)ccc1O[C@@H]1CCCC[C@H]1N1CCCC1
Second: Oc1ccc2c(Cc3ccc(O[C@@H]4CCCC[C@H]4N4CCCC4)c(Br)c3)c(-c3ccc(OCCN4CCCC4)cc3)sc2c1
The K ass of the first is higher: 3.49e+08 l M-1 for the first, 2.8e+08 l M-1 for the second.

Compared with O=C(c1ccc(O[C@@H]2CCCC[C@H]2N2CCCC2)cc1)c1c(-c2ccc(OCCN3CCCC3)cc2)sc2ccccc12, O=C(c1ccc(O[C@@H]2CCCC[C@H]2N2CCCCC2)cc1)c1c(-c2ccc(OCCN3CCCC3)cc2)sc2ccccc12 is higher in K ass: 510000 l M-1 for the first, 1.17e+06 l M-1 for the second.

First: O=C(c1ccc(O[C@@H]2CCCC[C@H]2N2CCCCCC2)cc1)c1c(-c2ccc(OCCN3CCCC3)cc2)sc2ccccc12
Second: c1ccc2c(Cc3ccc(O[C@@H]4CCCC[C@H]4N4CCCCC4)cc3)c(-c3ccc(OCCN4CCCC4)cc3)sc2c1
The K ass of the first is lower: 490000 l M-1 for the first, 2.04e+07 l M-1 for the second.

Going from CN(C)[C@@H]1CCCC[C@H]1Oc1ccc(Cc2c(-c3ccc(OCCN4CCCC4)cc3)sc3cc(O)ccc23)cc1 to CCN(CC)[C@@H]1CCCC[C@H]1Oc1ccc(Cc2c(-c3ccc(OCCN4CCCC4)cc3)sc3cc(O)ccc23)cc1, the K ass falls from 5.11e+07 l M-1 to 4.98e+07 l M-1.

Going from Oc1cccc2sc(-c3ccc(OCCN4CCCC4)cc3)c(Cc3ccc(O[C@@H]4CCCC[C@H]4N4CCCCC4)cc3)c12 to Oc1ccc2c(Cc3ccc(O[C@@H]4CCCC[C@H]4N4CCCC4)c(O)c3)c(-c3ccc(OCCN4CCCC4)cc3)sc2c1, the K ass rises from 1.73e+06 l M-1 to 1.12e+07 l M-1.

First: Oc1ccc2c(Cc3ccc(O[C@@H]4CCCC[C@H]4n4ccnc4)cc3)c(-c3ccc(OCCN4CCCC4)cc3)sc2c1
Second: COc1cc(Cc2c(-c3ccc(OCCN4CCCC4)cc3)sc3cc(O)ccc23)ccc1O[C@@H]1CCCC[C@H]1N(C)C
The K ass of the first is lower: 8.08e+06 l M-1 for the first, 1.46e+08 l M-1 for the second.

From ChEMBL document CHEMBL1132507, “Dibasic benzo[B]thiophene derivatives as a novel class of active site directed thrombin inhibitors: 4. SAR studies on the conformationally restricted C3-side chain of hydroxybenzo[B]thiophenes” (Bioorg Med Chem Lett, 1999)
